Measured values published in US8354415B2, “Thienopyrimidine compounds and compositions” (Vernalis (R&D) Ltd., priority 2007, dated 2013).

Target: T1, human adenosine A2B receptors (Homo sapiens, UniProt P29275)
T1 construct: expressed in transfected cells
T1 sequence (P29275 1-332): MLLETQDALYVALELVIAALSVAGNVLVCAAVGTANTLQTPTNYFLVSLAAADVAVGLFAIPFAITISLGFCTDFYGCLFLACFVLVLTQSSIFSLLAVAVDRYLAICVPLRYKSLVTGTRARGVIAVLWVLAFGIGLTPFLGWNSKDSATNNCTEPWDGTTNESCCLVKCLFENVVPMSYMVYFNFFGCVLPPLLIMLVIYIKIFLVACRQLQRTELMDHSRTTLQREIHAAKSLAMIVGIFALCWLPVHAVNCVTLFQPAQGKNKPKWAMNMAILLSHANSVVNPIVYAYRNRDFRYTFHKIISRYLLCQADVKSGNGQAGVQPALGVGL
Test: FLIPR calcium flux assay, adenosine A2B receptor expressing cells
Format: cell-based
Conditions: expressed human adenosine A2B receptors in mammalian cell lines, activity range
Experimental: The use of a Fluorometric Imaging Plate Reader (FLIPR) to measure calcium flux in Adenosine-receptor expressing cells is a well-established technique. In this assay calcium flux is triggered by receptor activation and measured through the fluorescence of an incorporated calcium-sensitive dye. The potencies shown were determined using expressed human adenosine A2B receptors in mammalian cell lines. Selectivity values were obtained by using mammalian cell lines expressing the human adenosine A1, A2A, and A3 receptors. Compound potency was determined from dose response curves and are reported as IC50 values.

Row | IC50 | Structure (SMILES)
1 | > 500 nM | CCNC(=O)c1nc(NCc2cccnc2)nc2ccsc12 [Example 8, 2-[(Pyridin-3-ylmethyl)-amino]-thieno[3,2-d]pyrimidine-4-carboxylic acid ethylamide]
2 | > 500 nM | O=C(NC1CC1)c1nc(NCc2cccnc2)nc2ccsc12 [Example 10, 2-[(Pyridin-3-ylmethyl)-amino]-thieno[3,2-d]pyrimidine-4-carboxylic acid cyclopropylamide]
3 | < 500 nM | CC(C)NC(=O)c1nc(NCc2cccnc2)nc2ccsc12 [Example 11, 2-[(Pyridin-3-ylmethyl)-amino]-thieno[3,2-d]pyrimidine-4-carboxylic acid isopropylamide]
4 | > 500 nM | CNC(=O)c1nc(NCc2cccnc2)nc2ccsc12 [Example 13, 2-[(Pyridin-3-ylmethyl)-amino]-thieno[3,2-d]pyrimidine-4-carboxylic acid methylamide]
5 | < 500 nM | O=C(NCc1ccccc1)c1nc(NCc2cccnc2)nc2ccsc12 [Example 16, 2-[(Pyridin-3-ylmethyl)-amino]-thieno[3,2-d]pyrimidine-4-carboxylic acid benzylamide]
6 | > 500 nM | COCCNC(=O)c1nc(NCc2cccnc2)nc2ccsc12 [Example 17, 2-[(Pyridin-3-ylmethyl)-amino]-thieno[3,2-d]pyrimidine-4-carboxylic acid (2-methoxy-ethyl)-amide]
7 | > 500 nM | O=C(NCc1cccnc1)c1nc(NCc2cccnc2)nc2ccsc12 [Example 18, 2-[(Pyridin-3-ylmethyl)-amino]-thieno[3,2-d]pyrimidine-4-carboxylic acid (pyridin-3-ylmethyl)-amide]

The remaining lines, values behind:

Row | Structure (SMILES) | IC50
8 | CC(Nc1nc(C(=O)N2CCCC2)c2sccc2n1)c1cccnc1 (racemic) [Example 7, [2-(1-Pyridin-3-yl-ethylamino)-thieno[3,2-d]pyrimidin-4-yl]-pyrrolidin-1-yl-methanone] | > 500 nM
9 | O=C(c1nc(NCc2cccnc2)nc2ccsc12)N1CCCC1 [Example 9, {2-[(Pyridin-3-ylmethyl)-amino]-thieno[3,2-d]pyrimidin-4-yl}-pyrrolidin-1-yl-methanone] | < 500 nM
10 | O=C(NC1CCCC1)c1nc(NCc2cccnc2)nc2ccsc12 [Example 12, 2-[(Pyridin-3-ylmethyl)-amino]thieno[3,2-d]pyrimidine-4-carboxylic acid cyclopentylamide] | > 500 nM
11 | O=C(NCCc1ccccc1)c1nc(NCc2cccnc2)nc2ccsc12 [Example 14, 2-[(Pyridin-3-ylmethyl)-amino]-thieno[3,2-d]pyrimidine-4-carboxylic acid phenethyl-amide] | < 500 nM
12 | O=C(NC1CCCCC1)c1nc(NCc2cccnc2)nc2ccsc12 [Example 15, 2-[(Pyridin-3-ylmethyl)-amino]-thieno[3,2-d]pyrimidine-4-carboxylic acid cyclohexylamide] | < 500 nM
13 | O=C(c1nc(NCc2cccnc2)nc2ccsc12)N1CCCCC1 [Example 19, Piperidin-1-yl-{2-[(pyridin-3-ylmethyl)-amino]-thieno[3,2-d]pyrimidin-4-yl}-methanone] | > 500 nM
14 | CC(Nc1nc(C(=O)NC2CC2)c2sccc2n1)c1cccnc1 (centres unmarked) [Example 20, 2-(1-Pyridin-3-yl-ethylamino)-thieno[3,2-d]pyrimidine-4-carboxylic acid cyclopropylamide] | < 500 nM
15 | Nc1nc(C(=O)NC2CC2)c2sccc2n1 [Example 21, 2-Amino-thieno[3,2-d]pyrimidine-4-carboxylic acid cyclopropylamide] | > 500 nM
16 | C[C@@H](Nc1nc(C(=O)N2CCCC2)c2sccc2n1)c1cccnc1 [Example 22] | > 500 nM
17 | C[C@H](Nc1nc(C(=O)N2CCCC2)c2sccc2n1)c1cccnc1 [Example 23, (S)-[2-(1-Pyridin-3-yl-ethylamino)-thieno[3,2-d]pyrimidin-4-yl]-pyrrolidin-1-yl-methanone] | < 500 nM
